Experimental data from ChEMBL document CHEMBL2046380, “Synthesis and structure-activity relationship of disubstituted benzamides as a novel class of antimalarial agents” (Bioorg Med Chem Lett, 2012).

Legend:
[1] = system: HEK293; assay: Cytotoxicity against human HEK293 cells after 72 hrs by […] CellTiterGlo reagent assay; type: cell-based; settings: HEK293, 72 h
[2] = system: Plasmodium falciparum; assay: Antimalarial activity against chloroquine-sensitive Plasmodium falciparum 3D7 incubated for 72 hrs by DNA staining based MAR3D7 growth inhibition assay; type: functional, organism-based; settings: 3D7, 72 h
[3] = system: Raji; assay: Cytotoxicity against human Raji cells after 72 hrs by […] CellTiterGlo reagent assay; type: cell-based
[4] = system: HepG2; assay: Cytotoxicity against human HepG2 cells after 72 hrs by […] CellTiterGlo reagent assay; type: cell-based; settings: HepG2, 72 h
[5] = system: BJ; assay: Cytotoxicity against human BJ cells after 72 hrs by […] CellTiterGlo reagent assay; type: cell-based
[6] = system: Plasmodium falciparum; assay: Antimalarial activity against […] incubated for 72 hrs by DNA staining based MARK1 growth inhibition assay; type: functional, organism-based

Compound | EC50 [1] | EC50 [2] | EC50 [3] | EC50 [4] | EC50 [5] | EC50 [6]
CCOC(=O)CCCCCOc1cccc(CN(C(=O)c2ccc(-c3ccoc3)cc2)C(C)C)c1 | > 26 µM | > 15 µM | > 26 µM | > 26 µM | > 26 µM | > 15 µM
CC(C)Oc1cccc(-c2ccc(C(=O)N(Cc3cccc(OCCCCCC(=O)O)c3)C(C)C)cc2)c1 | > 26 µM | > 15 µM | > 26 µM | > 26 µM | > 26 µM | > 15 µM
